From patent publication US20110053897A1 (IRM LLC, priority 2009, published 2011) come the findings set out here.

In one test the target is T1, Syk kinase (Homo sapiens, UniProt P43405).
T1 construct: purchased
Description: Syk kinase inhibition, Caliper LabChip off-chip mobility-shift kinase assay. It is filed as biochemical. The following applies: Caliper LabChip assay; read-out: Syk Enzyme IC50. The method in brief:
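Purified Syk pre-incubated 15 min with compound in 100 mM HEPES pH 7.5, 1 mM DTT, 10 mM MgCl2 or MnCl2, 0.002% Brij-35, then 1.5 μM fluorescein peptide and ATP at apparent KM added; 1–1.5 h at room temperature, 4% DMSO, EDTA stop. Microfluidic mobility-shift product/substrate conversion gave % inhibition; IC50 from 12-point series (10–0.00003 μM) by 4-parameter fit.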
`[2H][C@]1(O)CC[C@@H](Nc2nc(Nc3cnccn3)cc3ccn(CC)c(=O)c23)CC1` [compound 992]: the IC50 was determined as 0.012 µM.
As for `CC(C)(C)Nc1nc(Nc2cc(S(C)(=O)=O)ccn2)cc2ccn(CCO)c(=O)c12` [compound 699], the 50% inhibitory concentration (IC50) came out at 0.099 µM.
As for `CCn1ccc2cc(-c3cnc(N)nc3)nc(NS(C)(=O)=O)c2c1=O` [compound 744, N-(3-(2-Aminopyrimidin-5-yl)-7-ethyl-8-oxo-7,8-dihydro-2,7-naphthyridin-1-yl)methane sulfonamide], the IC50 was 0.202 µM.
The same measure, in the same setting: the same measure for `CCn1ccc2cc(Nc3nccc(O)n3)nc(N[C@H]3CC[C@@H](O)C3)c2c1=O` [compound 961]: 0.023 µM; for `[2H]C([2H])([2H])n1ccc2cc(Nc3cc(C)ccn3)nc(NC(C)(C)CO)c2c1=O` [compound 1047]: 0.0772 µM.
Same read-out and setting: the same measure for `Nc1ncc(-c2cc3ccn(C4COC4)c(=O)c3c(NC3CCOCC3)n2)cn1` [compound 770]: 0.036 µM; for `CC(C)(C)Nc1nc(Nc2cc(-c3ccncc3)ccn2)cc2ccn(CCO)c(=O)c12` [compound 842]: 0.051 µM.
On the same count and under the same terms, the same measure for `CCn1ccc2cc(Nc3cc(C)ccn3)nc(NC3CCS(=O)(=O)C3)c2c1=O` (stereo not shown) [compound 970]: 0.075 µM; for `CCCn1ccc2cc(-c3cnc(N)nc3)nc(NC(C)(C)C)c2c1=O` [compound 914]: 0.108 µM; for `CC(C)n1ccc2cc(Nc3cnccn3)nc(N[C@H]3CC[C@@H](O)C3)c2c1=O` [compound 978]: 0.016 µM.
As for `CCn1ccc2cc(Nc3cnccn3)nc(NC3CCS(=O)(=O)C3)c2c1=O` (stereo not shown) [compound 971], the IC50 is 0.145 µM.
The same measure, in the same setting: the same measure for `CC(C)(C)Nc1nc(Nc2cc(N3CCC(=O)CC3)ncn2)cc2ccn(CCO)c(=O)c12` [compound 632]: 0.117 µM; for `CC(C)(C)Nc1nc(Nc2cc(C3=CCCCC3)ncn2)cc2ccn(CCO)c(=O)c12` [compound 623]: 0.612 µM; for `CCC(C)(C)Nc1nc(-c2cnc(N)nc2)cc2cc[nH]c(=O)c12` [compound 893]: 0.043 µM.
For `CC(C)(C)Nc1nc(Nc2cc(C(C)(C)N)ccn2)cc2ccn(CCO)c(=O)c12` [compound 711, 6-(4-(2-aminopropan-2-yl)pyridin-2-ylamino)-8-(tert-butylamino)-2-(2-hydroxyethyl)-2,7-naphthyridin-1(2H)-one], the IC50 came out at 0.197 µM.
Still for that read-out and setting: the same measure for `CC1(Cn2ccc3cc(-c4cnc(N)nc4)nc(NC4(C)CCC4)c3c2=O)COC1` [compound 932]: 0.057 µM; for `COc1ccc(Nc2cc3ccn(CCO)c(=O)c3c(NC(C)(C)C)n2)nc1` [Compound No. 606, 8-(tert-butylamino)-2-(2-hydroxyethyl)-6-(5-methoxypyridin-2-ylamino)-2,7-naphthyridin-1(2H)-one]: 0.793 µM; for `CCn1ccc2cc(Nc3cnccn3)nc(N[C@H]3CC[C@H](O)C3)c2c1=O` [compound 946]: 0.017 µM.
Regarding `NC(=O)Cn1ccc2cc(Nc3cnccn3)nc(N[C@H]3C[C@@H](CO)C3)c2c1=O` [compound 747], the IC50 was 0.017 µM.
Still for that read-out and setting: the same measure for `CC(C)(C)Nc1nc(Nc2cc(OC3CCN(CCO)CC3)ncn2)cc2ccn(CCO)c(=O)c12` [compound 646]: 0.009 µM; for `CC(C)(C)Nc1nc(Nc2cc(CCCCO)ncn2)cc2ccn(CCO)c(=O)c12` [compound 629]: 0.062 µM.
Regarding `CC(C)Nc1nc(Nc2cc(-c3cccnc3)ccn2)cc2cc[nH]c(=O)c12` [compound 1045], the IC50 was found to be 0.247 µM.
On the same count and under the same terms, the result for `CCn1ccc2cc(Nc3nccc(O)n3)nc(N)c2c1=O` [compound 803] reads 0.307 µM; that for `CC(C)(C)Nc1nc(Nc2cc(-c3ccccn3)ccn2)cc2ccn(CCO)c(=O)c12` [compound 841], 0.291 µM; that for `CC(O)c1ccnc(Nc2cc3ccn(CC(N)=O)c(=O)c3c(NC(C)(C)C)n2)c1` (stereo not shown) [compound 725], 0.031 µM.
For the compound `O=c1c2c(NC3CCCC3)nc(Nc3cnccn3)cc2ccn1CC1(CO)COC1` [compound 763], the IC50 came out at 0.012 µM.
The same measure, in the same setting: the same measure for `COCCCN(C)S(=O)(=O)c1ccc(Nc2nc(Nc3cc(C)ccn3)cc3ccn(C)c(=O)c23)cc1` [compound 651]: 2.41 µM.
For `CC(O)c1ccnc(Nc2cc3ccn(CCO)c(=O)c3c(NC3(C)CCC3)n2)c1` (stereo not shown) [compound 718], the IC50 amounted to 0.011 µM.
Regarding `CC(=O)c1ccnc(Nc2cc3ccn(CCO)c(=O)c3c(NC(C)(C)C)n2)c1` [compound 684], the IC50 was 0.051 µM.

Staying with this test, now noted: read-out: Syk Enzyme IC50.
For the compound `CCn1ccc2cc(Nc3cnccn3)nc(N[C@@H]3CC[C@H](O)C3)c2c1=O` [compound 427], the IC50 is 0.0486 µM.
With `CCN1CCN(Cc2n[nH]c3cc(Nc4nc(-c5cnc(OC)nc5)cc5cc[nH]c(=O)c45)ccc23)CC1` [compound 204], the IC50 was determined as 0.048 µM.
On to `Cc1ccnc(Nc2cc3cc[nH]c(=O)c3c(NC3CCOCC3)n2)c1` [compound 293], for which the 50% inhibitory concentration (IC50) stood at 0.145 µM.
On the same count and under the same terms, the same measure for `COC(=O)C(C)N1CCC(c2ccc(Nc3nc(-c4cncc(OC)n4)cc4cc[nH]c(=O)c34)cc2C)CC1` (stereo not shown) [compound 116]: 0.184 µM.
`CC(C)Nc1nc(-c2cnc(N)nc2)cc2cc[nH]c(=O)c12` [compound 35]: the half-inhibitory concentration (IC50) came to 0.086 µM.
For `CCOC(=O)CCc1cc2cc[nH]c(=O)c2c(Nc2ccc(N3CCOCC3)cc2)n1` [compound 245], the IC50 is 0.295 µM.
On to `NC(=O)c1ccnc(Nc2cc3cc[nH]c(=O)c3c(NC3CC3)n2)c1` [compound 559], for which the IC50 is 0.292 µM.
Still for that read-out and setting: the same measure for `Cc1cc(Nc2cc3ccn(CCO)c(=O)c3c(NC(C)(C)CO)n2)ncc1Cl` [compound 497]: 0.111 µM.
`O=c1c2c(NCC(F)(F)F)nc(Nc3cc(Cl)ccn3)cc2ccn1CCO` [compound 593]: the IC50 turned out to be 0.271 µM.
On the same count and under the same terms, the result for `COc1cncc(-c2cc3cc[nH]c(=O)c3c(Nc3ccc(CCN4CCN(C(C)C)CC4)cc3)n2)n1` [compound 21] reads 0.086 µM.
Turning to `CCn1ccc2cc(Nc3cc(C)ccn3)nc(N[C@H]3CCCC[C@@H]3O)c2c1=O` (racemic) [compound 406], the IC50 came to 0.476 µM.
With `CCn1ccc2cc(Nc3cc(C)ccn3)nc(NC[C@H]3CC[C@@](C)(O)C3)c2c1=O` [compound 416], the IC50 came out at 0.176 µM.
`COCCCNc1nc(Nc2ccccn2)cc2cc[nH]c(=O)c12` [compound 190]: the IC50 is 0.286 µM.
As to `Cc1ccnc(Nc2cc3cc[nH]c(=O)c3c(NCC(O)c3cccc(Cl)c3)n2)c1` (stereo not shown) [compound 496], the IC50 worked out at 0.115 µM.
The same measure, in the same setting: the same measure for `C[C@@H]1CN(c2ccc(Nc3nc(/C=C/C(=O)O)cc4cc[nH]c(=O)c34)cn2)CCO1` [compound 241]: 0.208 µM.
For `Cn1cc(-c2cc3cc[nH]c(=O)c3c(Nc3ccc([C@H]4CC[C@H](N5CCOCC5)CC4)cc3)n2)cn1` [compound 99], the IC50 was 0.168 µM.
The same measure, in the same setting: the result for `Cc1ccnc(Nc2cc3ccn(C)c(=O)c3c(NC[C@H]3CCCO3)n2)c1` [compound 512] reads 0.158 µM.
The same measure, in the same setting: the same measure for `COc1ccc(Nc2nc(Nc3cnccn3)cc3ccn(C)c(=O)c23)cc1` [compound 365]: 0.361 µM.
The same measure, in the same setting: the result for `Cc1ccnc(Nc2cc3ccn(CCO)c(=O)c3c(N[C@H]3CCOC3)n2)c1` [compound 369] reads 0.012 µM.
`Cc1ccnc(Nc2cc3cc[nH]c(=O)c3c(N[C@@H]3CCC[C@H]3O)n2)c1` (racemic) [compound 267]: the concentration for half-maximal inhibition (IC50) amounted to 0.056 µM.
`COc1cncc(-c2cc3cc[nH]c(=O)c3c(Nc3ccc(C4CCN(CCCC#N)CC4)c(C)c3)n2)n1` [compound 172]: the IC50 was determined as 0.019 µM.
The same measure, in the same setting: the result for `Cn1ccc2cc(Nc3cnccn3)nc(N[C@H]3CC[C@@H](O)CC3)c2c1=O` [compound 330] reads 0.024 µM; that for `Cc1ccnc(Nc2cc3cc[nH]c(=O)c3c(NC3CCN(Cc4ccccc4)C3)n2)c1` (stereo not shown) [compound 553], 0.55 µM; that for `COc1cncc(-c2cc3cc[nH]c(=O)c3c(Nc3ccc(C4CCN(CCC(=O)O)CC4)c(C)c3)n2)n1` [compound 163], 0.007 µM.
On the same count and under the same terms, the same measure for `Cc1ccnc(Nc2cc3ccn(C)c(=O)c3c(Nc3ccc(C4CCOCC4)nc3)n2)c1` [compound 372]: 0.393 µM; for `CCn1ccc2cc(Nc3cnccn3)nc(N[C@@H](C)CO)c2c1=O` [compound 353]: 0.035 µM.
For the compound `CC(C)Nc1nc(Nc2ccc(C#N)cn2)cc2cc[nH]c(=O)c12` [compound 570], the IC50 amounted to 0.377 µM.
For the compound `CCn1ccc2cc(Nc3cncnc3C)nc(NC(C)C)c2c1=O` [compound 348], the IC50 turned out to be 7.44 µM.
Consider `C[C@H](O)CNc1nc(-c2cnc(N)nc2)cc2cc[nH]c(=O)c12` [compound 451], for which the IC50 was 0.088 µM.
In the case of `CCN1CCN(Cc2n[nH]c3cc(Nc4nc(-c5ccc(C)nc5)cc5cc[nH]c(=O)c45)ccc23)CC1` [compound 203], the IC50 turned out to be 0.049 µM.
With `Cc1cc(Nc2nc(Nc3ccc(S(N)(=O)=O)cn3)cc3cc[nH]c(=O)c23)ccc1C1CCN(C2CC2)CC1` [compound 258], the half-maximal inhibitory concentration (IC50) came to 0.061 µM.
For `N#Cc1ccc(Nc2cc3cc[nH]c(=O)c3c(Nc3ccc(N4CCOCC4)cc3)n2)nc1` [compound 515], the IC50 is 0.301 µM.
Same read-out and setting: the result for `Cc1ncc(-c2cc3cc[nH]c(=O)c3c(Nc3ccc([C@H]4CC[C@H](N5CCOCC5)CC4)cc3)n2)cn1` [compound 1] reads 0.049 µM.
Take `COc1cncc(-c2cc3cc[nH]c(=O)c3c(Nc3ccc(C4CCN(C(=O)C5(N)CC5)CC4)c(C)c3)n2)n1` [compound 60]: the IC50 stood at 0.155 µM.
The same measure, in the same setting: the same measure for `O=c1[nH]ccc2cc(C3=CCOCC3)nc(Nc3ccc(N4CCOCC4)cc3)c12` [compound 86]: 0.096 µM.
The same measure, in the same setting: the same measure for `Cc1ccnc(Nc2cc3cc[nH]c(=O)c3c(NC3CCCC3)n2)c1` [compound 292]: 0.176 µM; for `COc1ccnc(Nc2cc3cc[nH]c(=O)c3c(Nc3ccc(C4CCN(C5CC5)CC4)c(C)c3)n2)c1` [compound 259]: 0.255 µM; for `CCNC(=O)Cn1ccc2cc(Nc3cnccn3)nc(NC(C)C)c2c1=O` [compound 321]: 0.177 µM.

The term IC50 denotes the concentration at which inhibition is half-maximal.
